In US10259843B2, “Cyclic tetrapeptide stereoisomers” (University of Kansas, priority 2014, dated 2019):
Several values for one entry are separate records, joined by “and”; a condition that tells them apart may be missing. Identical values can stand only once. Entries after “also recorded” stand apart in the source; their conditions may differ. Counter-ions that a name gives are not always drawn. Like-named read-outs stand apart in the source and are kept apart here. Non-standard residues stand in square brackets, D forms with d. Residues, ends and D or L forms follow the SMILES beside them.

Assays:
[1] = test system: opioid receptors (KOR, MOR, DOR); test: mouse 55° C. warm water tail withdrawal assay, opioid antagonist activity; assay type: in vivo; settings: for Antagonism (opioid receptor antagonised in vivo): dose not given
Description: (§1) The peptides of Table 1 shown below in Tables 3 and 4 were evaluated in radioligand binding assays for mu, kappa and delta opioid receptor affinities in vitro, and in the mouse 55° C. warm water tail withdrawal assay in vivo for antinociception and opioid antagonist activity.

[2] = acute tolerance model; settings: in vivo
[3] = molecular target: kappa opioid receptor (KOR) (Homo sapiens, UniProt P41145); test: radioligand binding assay, kappa opioid receptor affinity; settings: for Selectivity KOR/MOR/DOR: ratio of Ki values
kappa opioid receptor (KOR), sequence (P41145 whole entry): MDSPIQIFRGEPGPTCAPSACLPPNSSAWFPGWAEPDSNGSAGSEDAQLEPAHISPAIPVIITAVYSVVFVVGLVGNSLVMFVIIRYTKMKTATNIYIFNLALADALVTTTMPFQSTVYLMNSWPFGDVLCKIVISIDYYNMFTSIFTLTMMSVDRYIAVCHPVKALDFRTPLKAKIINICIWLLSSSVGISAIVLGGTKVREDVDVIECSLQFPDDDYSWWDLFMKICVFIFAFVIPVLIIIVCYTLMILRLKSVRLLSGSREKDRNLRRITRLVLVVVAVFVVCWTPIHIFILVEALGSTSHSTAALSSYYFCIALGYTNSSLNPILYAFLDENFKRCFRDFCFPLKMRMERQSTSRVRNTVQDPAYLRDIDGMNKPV
Description: as §1

[4] = mouse 55° C. warm water tail withdrawal assay, antinociception; assay type: in vivo; settings: for ED50 (95% CI) i.c.v. / ED50 (95% CI) p.o.: antinociception; for Receptors involved: opioid receptors contributing to antinociception
Description: as §1

[5] = molecular target: delta opioid receptor (DOR) (Homo sapiens, UniProt P41143); test: radioligand binding assay, delta opioid receptor affinity; settings: for Ki: n in parentheses, read-out: Ki (nM ± SEM) DOR
delta opioid receptor (DOR), sequence (P41143 whole entry): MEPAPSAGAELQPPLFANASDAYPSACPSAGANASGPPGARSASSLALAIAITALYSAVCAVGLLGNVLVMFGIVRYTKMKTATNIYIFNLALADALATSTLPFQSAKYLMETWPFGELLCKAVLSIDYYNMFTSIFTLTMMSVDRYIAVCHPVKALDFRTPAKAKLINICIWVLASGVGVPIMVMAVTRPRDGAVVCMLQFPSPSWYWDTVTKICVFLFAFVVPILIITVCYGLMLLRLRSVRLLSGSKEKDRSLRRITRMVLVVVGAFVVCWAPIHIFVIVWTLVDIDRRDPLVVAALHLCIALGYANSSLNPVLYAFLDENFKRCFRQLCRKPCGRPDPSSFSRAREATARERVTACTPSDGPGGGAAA
Description: as §1

[6] = rotorod test for sedation and motor coordination; assay type: in vivo; parameters: key: ✓ indicates tested (if no other comment then no significant effect)
[7] = locomotion (CLAMS); assay type: in vivo; parameters: key: ✓ indicates tested (if no other comment then no significant effect)
[8] = molecular target: mu opioid receptor (MOR) (Homo sapiens, UniProt P35372); test: radioligand binding assay, mu opioid receptor affinity
mu opioid receptor (MOR), sequence (P35372 whole entry): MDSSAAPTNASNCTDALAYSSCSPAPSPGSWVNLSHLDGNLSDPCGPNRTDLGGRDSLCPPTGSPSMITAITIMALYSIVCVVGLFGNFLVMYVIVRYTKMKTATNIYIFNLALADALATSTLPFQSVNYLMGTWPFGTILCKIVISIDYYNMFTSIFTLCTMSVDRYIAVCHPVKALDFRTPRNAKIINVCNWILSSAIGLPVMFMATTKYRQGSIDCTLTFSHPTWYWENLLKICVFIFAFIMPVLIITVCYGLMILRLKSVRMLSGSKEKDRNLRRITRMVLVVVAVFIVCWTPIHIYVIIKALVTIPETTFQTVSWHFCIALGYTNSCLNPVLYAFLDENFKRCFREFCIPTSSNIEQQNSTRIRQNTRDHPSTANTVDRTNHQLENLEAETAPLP
Description: as §1

[9] = other pain models (formalin, acetic acid stretching, nerve constriction; FIGS. 1-3B); settings: in vivo
Description: These models are based on the formalin assay, the acetic acid stretching assay, and the nerve constriction assay. The formalin and acetic acid stretching assays are indicative of activity against inflammatory pain (i.e., nociceptive pain) and the nerve constriction assay is indicative of activity against neuropathic pain.

[10] = nerve constriction assay for neuropathic pain; assay type: in vivo, rodent; settings: 10 mg/kg p.o.; compared to 50 mg/kg i.p. gabapentin and 2801
Description: In the nerve constriction assay, a nerve of a subject rodent is chronically constricted or cuffed and then the animal is assessed for response to pain stimuli such a paw withdrawal. […] Gabapentin is an accepted treatment for neuropathic pain.

[11] = respiratory depression; assay type: in vivo; parameters: key: ✓ indicates tested (if no other comment then no significant effect)
[12] = conditioned place response assay; settings: oral administration of the peptides
[13] = n in parentheses, read-out: Ki (nM ± SEM) KOR
[14] = n in parentheses, read-out: Ki (nM ± SEM) MOR

Row | Compound | Antagonism (opioid receptor antagonised in vivo) [1] | Acute Tolerance ED50 shift [2] | Ki [3, 13] | ED50 (95% CI) i.c.v. ([4]; i.c.v.) | ED50 (95% CI) p.o. ([4]; p.o.) | Receptors involved [4] | Ki [5] [nM] | Ki [8, 14] [nM] | Antagonism (dose, nmol) ([1]; 100 nmol) | Locomotion (CLAMS, 10 mg/kg, p.o.) [7] | Respiratory depression 10 mg/kg p.o. [11] | Rotorod (10 mg/kg, p.o.) [6] | further results
1 | O=C1N[C@@H](Cc2ccccc2)C(=O)N2CCC[C@@H]2C(=O)N[C@@H](Cc2ccccc2)C(=O)N[C@H]1Cc1c[nH]c2ccccc12 [JVA 2801, cyclo[Phe-D-Pro-Phe-Trp], reference compound] (cyclo(FWF[dP])) | KOR | 1.73 fold | 35.4 nM and 16.9 nM | 1.74 nmol | 3.49 mg/kg | KOR, MOR | 1720 ± 350 | – | – | – | – | – | Antagonism (opioid receptor antagonised in vivo) ([1]; listed as CJ-15,208): mixed opioid agonist/kappa opioid receptor (KOR) antagonist activity; also recorded: weak antagonist activities at kappa opioid receptors (KOR); Selectivity KOR/MOR/DOR [3]: 1/18/49 and 1/12/102; Rotorod ([6]; 10 and 60 mg/kg): ✓ (10 and 60
2 | O=C1N[C@H](Cc2c[nH]c3ccccc23)C(=O)N[C@@H](Cc2ccccc2)C(=O)N2CCC[C@@H]2C(=O)N[C@H]1Cc1ccccc1 [JVA 2802, cyclo[Phe-D-Pro-Phe-D-Trp], reference compound] (cyclo(F[dP]F[dW])) | KOR | – | – | – | – | KOR | 4190 ± 860 | 259 ± 29 | – | – | – | – | Locomotion (CLAMS) ([7]; 60 mg/kg): ✓; affinity for KOR [3]: retains KOR affinity comparable to the parent CJ-15,208; Selectivity KOR/MOR/DOR [3]: 1/37/599; antinociception i.c.v. at 30 nmol ([4]; i.c.v., 30 nmol): ~40% @; antinociception p.o. at 60 mg/kg ([4]; p.o., 60 mg/kg): ~25% @
3 | O=C1N[C@H](Cc2ccccc2)C(=O)N2CCC[C@@H]2C(=O)N[C@@H](Cc2ccccc2)C(=O)N[C@H]1Cc1c[nH]c2ccccc12 [JVA 3605, cyclo[D-Phe-D- Pro-Phe-Trp]] (cyclo([dF][dP]FW)) | exhibits KOR antagonist activity; also recorded: exhibit DOR antagonist activity | – | 5120 ± 690 nM | 0.75 nmol | 7.62 mg/kg | KOR, MOR, and DOR | > 10000 | > 10000 | DOR (100) | ✓ | evidence of respiratory depression; also recorded: Sig. resp | effects similar to the KOR selective agonist U50,488, suggesting sedation; also recorded: ✓ (sig | analgesic activity in other pain models [9]: significant analgesic properties; also recorded: show activity against pain; Antagonism (dose, nmol) ([1]; 30 nmol): KOR (30),; relief of neuropathic pain [10]: significant relief of neuropathic pain; conditioned place preference (drug seeking behavior) or conditioned place aversion [12]: no evidence of inducing drug seeking behavior; also recorded: do not show evidence of conditioned place preference (drug seeking behavior) or conditioned place aversion
4 | O=C1N[C@@H](Cc2ccccc2)C(=O)N2CCC[C@@H]2C(=O)N[C@H](Cc2ccccc2)C(=O)N[C@H]1Cc1c[nH]c2ccccc12 [JVA 3606, cyclo[Phe-D-Pro-D-Phe-Trp]] (cyclo(F[dP][dF]W)) | – | Substantial | 362 ± 51 nM | Partial agonist | > 30 mg/kg | KOR, MOR | > 10000 | 3920 ± 200 | None (100) | Sig. hypo- | ✓ | ✓ | Ki ([8]; read-out: Ki MOR): > 1000 nM; Ki ([3]; read-out: Ki KOR): < 1000 nM; maximum antinociception i.c.v. ([4]; i.c.v., max): (~60% max); antinociception response p.o. at 30 mg/kg ([4]; p.o.): ~45%; affinity for DOR [5]: negligible affinity
5 | O=C1N[C@H](Cc2ccccc2)C(=O)N[C@H](Cc2c[nH]c3ccccc23)C(=O)N[C@@H](Cc2ccccc2)C(=O)N2CCC[C@H]12 [JVA 3608, cyclo[Phe-D-Pro-D-Phe-D-Trp]] (cyclo(F[dP][dF][dW])) | exhibit DOR antagonist activity | 9.87 fold | 353 ± 19 nM | 0.56 nmol | 4.72 mg/kg | KOR, MOR, and DOR | > 10000 | 5800 ± 1450 | DOR (100) | Sig. hypo- | evidence of respiratory depression; also recorded: Resp | ✓ | analgesic activity in other pain models [9]: significant analgesic properties; analgesic activity in other pain models ([9]; listed as 3708): show activity against pain; relief of neuropathic pain [10]: significant relief of neuropathic pain; Ki ([8]; read-out: Ki MOR): > 1000 nM; Ki ([3]; read-out: Ki KOR): < 1000 nM; affinity for DOR [5]: negligible affinity
6 | O=C1N[C@H](Cc2c[nH]c3ccccc23)C(=O)N[C@H](Cc2ccccc2)C(=O)N2CCC[C@@H]2C(=O)N[C@H]1Cc1ccccc1 [JVA 3609, cyclo[D-Phe-D- Pro-Phe-D-Trp]] (cyclo(F[dW][dF][dP])) | – | – | > 10000 nM | 2.39 nmol | ≥10 mg/kg | mu opioid receptors (MOR) are not involved; also recorded: DOR, KOR | > 10000 | > 10000 | – | Sig. hypo- | evidence of respiratory depression; also recorded: Resp | ✓ (sig | Antagonism (dose, nmol) ([1]; 30 nmol): None (30); antinociception response p.o. at 30 mg/kg ([4]; p.o.): (~60% at
7 | O=C1N[C@@H](Cc2ccccc2)C(=O)N2CCC[C@H]2C(=O)N[C@@H](Cc2ccccc2)C(=O)N[C@H]1Cc1c[nH]c2ccccc12 [JVA 3612, cyclo[Phe-Pro- Phe-Trp]] (cyclo(FPFW)) | – | – | – | 3.52 (2.01-6.42) nmol | 4.28 (3.56-5.27) mg/kg | KOR, MOR and DOR | – | – | – | – | – | – | –
8 | O=C1N[C@H](Cc2ccccc2)C(=O)N2CCC[C@H]2C(=O)N[C@H](Cc2ccccc2)C(=O)N[C@H]1Cc1c[nH]c2ccccc12 [JVA 3638, cyclo[D-Phe- Pro-D-Phe-Trp]] (cyclo(P[dF]W[dF])) | – | – | – | 8.93 (1.96-19.5) nmol | – | – | – | – | – | – | – | – | –
9 | O=C1N[C@H](Cc2c[nH]c3ccccc23)C(=O)N[C@@H](Cc2ccccc2)C(=O)N2CCC[C@H]2C(=O)N[C@H]1Cc1ccccc1 [JVA 3639, cyclo[Phe-Pro- Phe-D-Trp]] (cyclo(FPF[dW])) | – | – | – | 49.7 (34.8-69.8) nmol | – | – | – | – | – | – | – | – | –
10 | CN1CC[C@]23c4c5ccc(O)c4O[C@H]2[C@@H](O)C=C[C@H]3[C@H]1C5 [Morphine sulfate, morphine, reference compound] | – | – | – | – | – | – | – | – | – | – | – | – | conditioned place preference (drug seeking behavior) or conditioned place aversion [12]: significant conditioned place preference
